Source: patent EP0034120A1, “Derivatives of phenoxy-phenoxy-carboxylic acids” (CIBA-GEIGY AG, priority 1980, dated 1981)

Experiments:
Type in all cases: in vivo
Parameters in all cases: key: 1 Pflanze abgestorben; 2-4 schwere Schädigung; 3: 2-4 schwere Schädigung; 2-4 schwere Schädigung; 5, 6 mittlere Schäden; 5, 6 mittlere Schäden; 7, 8 leichte Schäden; 7, 8 leichte Schäden; 9 Pflanze gedeiht normal, wie unbehandelte Kontrollpflanze
Ammania indica = assay: Selective herbicidal action in rice, post-emergence (flooded trays); details: applied into paddy water, evaluated after 4 weeks
Protocol: (§1) Reispflänzchen, welche 25 Tage alt sind, wurden im Gewächshaus in grosse rechtackige Eternitschalen vergflanzt. Zwischen die Reiben der Reispfianzon wurden dann Samen der in Reiskulturen vorkommanden Unkräuter Echinochloa crus galli, Cyperus difformis, ? und Rotala gesät. Die Schalen wurden gut bewässert und bei einer Temperatur von ca. 25°C und hoher Luftfeuchtigkeit gehalten. Nach 12 Tagen, wenn die Unkräuter aufgelaufen sind und das 2-3 Blattstadium erreicht haben, wurde die Erde in der Schale mit einer 2,5 cm hohen Schicht Wasser bedeckt. Die Verbindung No. 2 wurde denn als Emulsionskonzentrat mittels einer-Pipette zwischen die Pflanzenreihen appliziert, wobei man das Emulsionskonzentrat so verdünnte und auftrug, dass es einer Applikationsmenge im Feld von 2 und 1 kg Wirkstoff pro Hektar entsprach. Der Versuch wurde nach 4 Wochen ausgewertat.

Rotala indica = assay: as above; details: applied into paddy water, evaluated after 4 weeks
Protocol: as §1

Cyperus difformis = assay: as above; details: applied into paddy water, evaluated after 4 weeks
Protocol: as §1

Reis [1] = assay: as above; details: applied as emulsion concentrate into paddy water, evaluated after 4 weeks
Protocol: as §1

Echinochloa crus galli = assay: as above; details: applied into paddy water, evaluated after 4 weeks
Protocol: as §1

abutilon sp = assay: Herbicidal action, pre-emergent application (greenhouse); details: after 3 weeks
Protocol: (§2) wurde durchfolgende Versuche ermittelt: Herbizide Wirkung bei Applikation der Wirkstoffe vor dem Auflaufen der Pflanzen (pre-emergent) Im Gewächshaus werden Pflanzensamen in Blumentöpfe von ca. 11 cm Durchmesser gesät. […] Die Töpfe werden dann im Gewächshaus unter optimalen Bedingungen für das Pflanzenwachstum, regelmässiges Bewässern, einer Temperatur von 22-25°C und 50-70% relativer Luftfeuchtigkeit gehalten. Der Versuch wird nach 3 Wochen abgebrochen und der Zustand der Pflanzen gemäss dem folgenden EWRC (European Weed Research Councel) Bewertungsschema registriert: • 1 Pflanze abgestorben • 2-4 schwere Schädigung • 5, 6 mittlere Schäden • 7, 8 leichte Schäden • 9 Pflanze gedeiht normal, wie unbehandelte Kontrollpflanze.

viola tricolor = assay: as above; details: after 3 weeks
Protocol: as §2

Weizen = assay: as above; details: after 3 weeks
Protocol: as §2

beta vulgaris = assay: as above; details: after 3 weeks
Protocol: as §2

chenopodium sp. = assay: as above; details: after 3 weeks
Protocol: as §2

sinapis alba = assay: as above; details: after 3 weeks
Protocol: as §2

Reis [2] = assay: as above; details: after 3 weeks
Protocol: as §2

chrysanthemum l. = assay: as above; details: after 3 weeks
Protocol: as §2

amarantus retrofl. = assay: as above; details: after 3 weeks
Protocol: as §2

CCOC(=O)CCC(C)Oc1cc(Oc2ccc(C(F)(F)F)cc2Cl)ccc1Cl (stereo not shown) [Verbindung No. 2, 4-[3'-(2"-Chlor-4-trifluormethylphenoxy)-6'-chlorphenoxy]-valeriansäure-äthylester]
Selektive herbizide Wirkung (rating) (Ammania indica; 1 kg/ha): 3 | Selektive herbizide Wirkung (rating) (Ammania indica; 2 kg/ha): 1 | Selektive herbizide Wirkung (rating) (Rotala indica; 1 kg/ha): 4 | Selektive herbizide Wirkung (rating) (Rotala indica; 2 kg/ha): 3 | Selektive herbizide Wirkung (rating) (Cyperus difformis; 1 kg/ha): 5 | Selektive herbizide Wirkung (rating) (Cyperus difformis; 2 kg/ha): 3 | Selektive herbizide Wirkung (rating) (Reis [1]; 1 kg/ha): 7 | Selektive herbizide Wirkung (rating) (Reis [1]; 2 kg/ha): 7 | Selektive herbizide Wirkung (rating) (Echinochloa crus galli; 1 kg/ha): 4 | Selektive herbizide Wirkung (rating) (Echinochloa crus galli; 2 kg/ha): 3 | Zustand der Pflanzen (EWRC Bewertungsschema) (abutilon sp; Aufwandmenge 2 kg/ha): 5 | Zustand der Pflanzen (EWRC Bewertungsschema) (abutilon sp; Aufwandmenge 4 kg/ha): 1 | Zustand der Pflanzen (EWRC Bewertungsschema) (viola tricolor; Aufwandmenge 2 kg/ha): 2 | Zustand der Pflanzen (EWRC Bewertungsschema) (viola tricolor; Aufwandmenge 4 kg/ha): 1 | Zustand der Pflanzen (EWRC Bewertungsschema) (Weizen; Aufwandmenge 2 kg/ha): 9 | Zustand der Pflanzen (EWRC Bewertungsschema) (Weizen; Aufwandmenge 4 kg/ha): 9 | Zustand der Pflanzen (EWRC Bewertungsschema) (beta vulgaris; Aufwandmenge 2 kg/ha): 3 | Zustand der Pflanzen (EWRC Bewertungsschema) (beta vulgaris; Aufwandmenge 4 kg/ha): 1 | Zustand der Pflanzen (EWRC Bewertungsschema) (chenopodium sp.; Aufwandmenge 2 kg/ha): 2 | Zustand der Pflanzen (EWRC Bewertungsschema) (chenopodium sp.; Aufwandmenge 4 kg/ha): 1 | Zustand der Pflanzen (EWRC Bewertungsschema) (sinapis alba; Aufwandmenge 2 kg/ha): 1 | Zustand der Pflanzen (EWRC Bewertungsschema) (sinapis alba; Aufwandmenge 4 kg/ha): 1 | Zustand der Pflanzen (EWRC Bewertungsschema) (Reis [2]; Aufwandmenge 2 kg/ha): 9 | Zustand der Pflanzen (EWRC Bewertungsschema) (Reis [2]; Aufwandmenge 4 kg/ha): 9 | Zustand der Pflanzen (EWRC Bewertungsschema) (chrysanthemum l.; Aufwandmenge 2 kg/ha): 1 | Zustand der Pflanzen (EWRC Bewertungsschema) (chrysanthemum l.; Aufwandmenge 4 kg/ha): 1 | Zustand der Pflanzen (EWRC Bewertungsschema) (amarantus retrofl.; Aufwandmenge 2 kg/ha): 1 | Zustand der Pflanzen (EWRC Bewertungsschema) (amarantus retrofl.; Aufwandmenge 4 kg/ha): 1
